From patent US5523460A, “4-fluorobiphenyl derivatives” (Fujirebio Inc., priority 1993, dated 1996)
Like-named read-outs stand apart in the source and are kept apart here.

What was measured:
HMG-CoA Reductase = target: T1, HMG-CoA Reductase (Rattus norvegicus, UniProt P51639); assay: biochemical; conditions: method of J. Biol. Chem. Vol. 234, page 2835 (1959); read-out: HMG-CoA Reductase Inhibitory Activity IC50
T1 sequence (P51639 1-887): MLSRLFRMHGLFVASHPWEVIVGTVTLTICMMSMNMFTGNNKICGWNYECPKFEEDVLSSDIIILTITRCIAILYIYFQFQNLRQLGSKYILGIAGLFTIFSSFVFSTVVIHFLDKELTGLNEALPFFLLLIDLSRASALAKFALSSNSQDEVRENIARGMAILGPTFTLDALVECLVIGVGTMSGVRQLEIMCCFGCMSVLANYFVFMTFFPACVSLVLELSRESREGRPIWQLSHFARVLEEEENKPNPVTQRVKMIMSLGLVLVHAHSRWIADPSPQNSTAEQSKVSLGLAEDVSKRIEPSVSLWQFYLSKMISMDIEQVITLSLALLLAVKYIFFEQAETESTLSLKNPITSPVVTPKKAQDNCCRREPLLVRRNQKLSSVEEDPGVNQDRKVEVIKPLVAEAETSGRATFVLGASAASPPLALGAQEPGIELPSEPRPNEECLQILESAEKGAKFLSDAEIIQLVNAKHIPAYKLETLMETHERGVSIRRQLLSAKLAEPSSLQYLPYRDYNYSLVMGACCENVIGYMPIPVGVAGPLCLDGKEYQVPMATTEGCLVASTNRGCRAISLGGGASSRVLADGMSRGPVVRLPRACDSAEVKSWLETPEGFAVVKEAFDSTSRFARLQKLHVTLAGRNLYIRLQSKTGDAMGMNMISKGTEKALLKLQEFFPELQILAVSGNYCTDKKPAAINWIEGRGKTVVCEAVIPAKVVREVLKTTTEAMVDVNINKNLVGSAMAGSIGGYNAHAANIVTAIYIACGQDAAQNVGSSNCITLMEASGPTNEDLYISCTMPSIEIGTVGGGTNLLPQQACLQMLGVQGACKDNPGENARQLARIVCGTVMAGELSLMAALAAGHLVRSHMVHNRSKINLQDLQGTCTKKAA
Protocol: Test 1Determination of Inhibitory Activity on HMG-CoA Reductase
The inhibitory effect on HMG-CoA Reductase of each of representative examples of the 4-fluorobiphenyl derivatives prepared in the above-discussed examples was determined in accordance with the method described in Journal of Biological Chemistry (J. Biol. Chem.) Vol. 234, page 2835 (1959), and IC50 values were obtained.

biosynthesis of sterol = assay: Determination of Inhibition of Sterol Synthesis (liver, after oral administration to rats); type: in vivo, SD rats; conditions: Rattus norvegicus, 2 h, read-out: Inhibition of Sterol Synthesis
Protocol: Test 2 Determination of Inhibition of Sterol Synthesis
Representative compounds (0.3 mg/5ml/kg) suspended in a 5% arabic gum solution were orally given to SD rats weighing 150 to 200 g. One hour later, ^14 C-acetic acid (100 μCi/kg) was intraperitoneally injected, and furthermore one hour later, liver was removed to determine the inhibitory activity of each of the compounds on the biosynthesis of sterol in accordance with the method described in European Journal of Biochemistry (Eur. J. Biochem.) Vol.77, page 31 (1977).

COc1c(OCCO)cc(C(C)C)c(/C=C/C(O)CC(O)CC(=O)O)c1-c1ccc(F)cc1 (centres unmarked)
IC50 (HMG-CoA Reductase): 0.0204 µM
inhibition in vivo at 0.3 mg/kg (biosynthesis of sterol; po): 61%

COCCOCCOc1cc(C(C)C)c(/C=C/C(O)CC(O)CC(=O)O)c(-c2ccc(F)cc2)c1OC (centres unmarked)
IC50 (HMG-CoA Reductase): 0.0264 µM
inhibition in vivo at 0.3 mg/kg (biosynthesis of sterol; po): 62%

COCCOCCOc1c(OC)cc(C(C)C)c(/C=C/C(O)CC(O)CC(=O)O)c1-c1ccc(F)cc1 (centres unmarked)
IC50 (HMG-CoA Reductase): 0.00943 µM
inhibition in vivo at 0.3 mg/kg (biosynthesis of sterol; po): 69%

COCCOc1cc(C(C)C)c(/C=C/C(O)CC(O)CC(=O)O)c(-c2ccc(F)cc2)c1OC (centres unmarked)
IC50 (HMG-CoA Reductase): 0.0161 µM
inhibition in vivo at 0.3 mg/kg (biosynthesis of sterol; po): 71%

COc1c(C)cc(C(C)C)c(/C=C/C(O)CC(O)CC(=O)O)c1-c1ccc(F)cc1 (centres unmarked)
IC50 (HMG-CoA Reductase): 0.0166 µM
inhibition in vivo at 0.3 mg/kg (biosynthesis of sterol; po): 65%

CCC(C)(C)C(=O)O[C@H]1C[C@@H](C)C=C2C=C[C@H](C)[C@H](CC[C@@H]3C[C@@H](O)CC(=O)O3)[C@H]21 [Simvastatin, reference compound]
inhibition in vivo at 0.3 mg/kg (biosynthesis of sterol; 0.3 mg/5ml/kg oral in 5% arabic gum, SD rats, 14C-acetic acid (100 μCi/kg) i.p. 1 h later, liver removed 1 h after that): 24%

COCCOc1c(OC)cc(C(C)C)c(/C=C/C(O)CC(O)CC(=O)O)c1-c1ccc(F)cc1 (centres unmarked)
IC50 (HMG-CoA Reductase): 0.0256 µM
inhibition in vivo at 0.3 mg/kg (biosynthesis of sterol; po): 60%

COc1c(Cl)cc(C(C)C)c(/C=C/C(O)CC(O)CC(=O)O)c1-c1ccc(F)cc1 (centres unmarked)
IC50 (HMG-CoA Reductase): 0.0187 µM
inhibition in vivo at 0.3 mg/kg (biosynthesis of sterol; po): 71%

COc1cc(C(C)C)c(/C=C/C(O)CC(O)CC(=O)O)c(-c2ccc(F)cc2)c1OC (centres unmarked)
IC50 (HMG-CoA Reductase): 0.00543 µM
inhibition in vivo at 0.3 mg/kg (biosynthesis of sterol; po): 71%
